From PubChem BioAssay AID328 (DTP/NCI, 2004) come the findings set out here.

Structures are written as SMILES. Where “and” joins values, the source holds several entries; their conditions need not be identical. Identical values can stand only once. Toxic doses and inconclusive results are not listed.

In the experiment the test system is BDF1 mice, P388 leukemia ip, median survival T/C. Nature of the experiment: NCI In Vivo Anticancer Drug Screen. Data for tumor model P388 Leukemia (intraperitoneal) in B6D2F1 (BDF1) mice. As to conditions: endpoint: median survival time, higher = longer survival. The method, boiled down:
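Vehicle-dosed animals serve as the reference; survival of compound-dosed, tumour-implanted mice is divided by it.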

Where [1] appears, read: dose: 25.0 mg/kg/injection, schedule: Q01DX009 (ip), vehicle: saline with Tween-80.
The mark [2] stands for this setting: dose: 50.0 mg/kg/injection, schedule: Q01DX009 (ip), vehicle: saline with Tween-80.
[3] abbreviates: dose: 200.0 mg/kg/injection, schedule: Q01DX009 (ip), vehicle: saline with Tween-80.
Where [4] appears, read: dose: 100.0 mg/kg/injection, schedule: Q01DX009 (ip), vehicle: Klucel (hydroxypropylcellulose) (HPC).
The mark [5] stands for this setting: dose: 100.0 mg/kg/injection, schedule: Q01DX009 (ip), vehicle: saline with Tween-80.
The mark [6] stands for this setting: dose: 100.0 mg/kg/injection, schedule: Q04DX003 (ip), vehicle: saline with Tween-80.
[7] abbreviates: dose: 200.0 mg/kg/injection, schedule: Q04DX003 (ip), vehicle: saline with Tween-80.
Setting [8] is: dose: 400.0 mg/kg/injection, schedule: Q01DX009 (ip), vehicle: saline with Tween-80.
The mark [9] stands for this setting: dose: 400.0 mg/kg/injection, schedule: Q04DX003 (ip), vehicle: saline with Tween-80.
[10] abbreviates: dose: 12.5 mg/kg/injection, schedule: Q04DX003 (ip), vehicle: saline.
Where [11] appears, read: dose: 25.0 mg/kg/injection, schedule: Q01DX009 (ip), vehicle: saline.
[12] abbreviates: dose: 25.0 mg/kg/injection, schedule: Q04DX003 (ip), vehicle: saline.
[13] abbreviates: dose: 50.0 mg/kg/injection, schedule: Q01DX009 (ip), vehicle: saline.
The mark [14] stands for this setting: dose: 50.0 mg/kg/injection, schedule: Q04DX003 (ip), vehicle: saline.
[15] abbreviates: dose: 100.0 mg/kg/injection, schedule: Q04DX003 (ip), vehicle: saline.
Where [16] appears, read: dose: 100.0 mg/kg/injection, schedule: Q01DX009 (ip), vehicle: saline.

On to `CCCCCCCCOC(=O)c1ccc(OP(=O)(N(C)C)N(C)C)cc1`, for which the T/C was 99 % of control (dose: 12.5 mg/kg/injection, schedule: Q01DX009 (ip), vehicle: saline with Tween-80); 101 % of control under setting [1]; 106 % of control and 124 % of control under setting [2]; 94 % of control under setting [3].
`CC(=O)Nc1nccs1`: the T/C was 104 % of control (dose: 25.0 mg/kg/injection, schedule: Q01DX009 (ip), vehicle: Klucel (hydroxypropylcellulose) (HPC)); 95 % of control (dose: 25.0 mg/kg/injection, schedule: Q04DX003 (ip), vehicle: Klucel (hydroxypropylcellulose) (HPC)); 95 % of control (dose: 50.0 mg/kg/injection, schedule: Q01DX009 (ip), vehicle: Klucel (hydroxypropylcellulose) (HPC)); 91 % of control (dose: 50.0 mg/kg/injection, schedule: Q04DX003 (ip), vehicle: Klucel (hydroxypropylcellulose) (HPC)); 109 % of control under setting [4]; 95 % of control (dose: 100.0 mg/kg/injection, schedule: Q04DX003 (ip), vehicle: Klucel (hydroxypropylcellulose) (HPC)).
In the case of `CC(CCCC1SCC2NC(=O)NC21)C(=O)O` (stereo not given), the T/C by setting is: under setting [4], 102 % of control; (dose: 200.0 mg/kg/injection, schedule: Q01DX009 (ip), vehicle: Klucel (hydroxypropylcellulose) (HPC)) 91 % of control; (dose: 400.0 mg/kg/injection, schedule: Q01DX009 (ip), vehicle: Klucel (hydroxypropylcellulose) (HPC)) 98 % of control.
As to `CC(C)COC(=O)c1cc(O)c(O)c(O)c1`, the T/C under setting [1] was 95 % of control; the T/C under setting [2] is 91 % of control; the T/C under setting [5] was 112 % of control; the T/C under setting [6] was 105 % of control; the T/C under setting [3] was 103 % of control; the T/C under setting [7] was 115 % of control. The T/C by setting is: under setting [8], 103 % of control; under setting [9], 115 % of control.
Regarding `NNC(=O)CCc1ccccc1Br`, the T/C reads like this: under setting [1], 100 % of control; under setting [2], 100 % of control.
As to `CN1C2CCC1CN(Cc1ccccc1)C2`, the T/C runs as follows: (dose: 12.5 mg/kg/injection, schedule: Q01DX009 (ip), vehicle: saline) 95 % of control; under setting [10], 88 % of control; under setting [11], 95 % of control; under setting [12], 100 % of control; under setting [13], 91 % of control; under setting [14], 100 % of control.
Turning to `Cc1nc2c(N)nn(C)c2nc1C`, the T/C reads like this: under setting [6], 100 % of control; under setting [7], 100 % of control.
Regarding `CCOC(=O)Nc1cc(NC(C)CCCN(CC)CC)c2ncc(-c3cc(OC)c(OC)c(OC)c3)nc2n1` (stereo not given) (tested in a mixture with another compound), the T/C is 115 % of control under setting [11], 120 % of control under setting [13], 95 % of control under setting [14] and 109 % of control under setting [15].
With `Cc1ccc(C(=O)CCCCl)cc1C`, the T/C is 104 % of control under setting [6], 104 % of control under setting [7] and 109 % of control under setting [9].
As to `O=CNc1ccc(O)cc1`, the T/C runs as follows: under setting [6], 104 % of control; under setting [7], 104 % of control; under setting [9], 100 % of control.
For the compound `CN(Cc1cnc2nc(N)nc(N)c2n1)c1c(Cl)cc(C(=O)NC(CCC(=O)O)C(=O)O)cc1Br` (stereo not given), the T/C (dose: 0.13 mg/kg/injection, schedule: Q04DX003 (ip), vehicle: saline) is 108 % of control; the T/C (dose: 0.19 mg/kg/injection, schedule: Q04DX003 (ip), vehicle: saline) is 116 % of control; the T/C (dose: 1.1 mg/kg/injection, schedule: Q04DX003 (ip), vehicle: saline) was 150 % of control; the T/C (dose: 6.3 mg/kg/injection, schedule: Q04DX003 (ip), vehicle: saline) was 150 % of control; the T/C under setting [11] was 213 % of control; the T/C under setting [13] was 261 % of control. The T/C runs as follows: under setting [5], 173 % of control; under setting [16], 271 % of control; (dose: 115.0 mg/kg/injection, schedule: Q04DX003 (ip), vehicle: saline) 236 % of control; (dose: 175.0 mg/kg/injection, schedule: Q04DX003 (ip), vehicle: saline) 272 % of control; under setting [3], 182 % of control; (dose: 264.0 mg/kg/injection, schedule: Q04DX003 (ip), vehicle: saline) 254 % of control. For the same compound, the T/C was 272 % of control (dose: 400.0 mg/kg/injection, schedule: Q04DX003 (ip), vehicle: saline) and 90 % of control (dose: 600.0 mg/kg/injection, schedule: Q04DX003 (ip), vehicle: saline).
As to `O=C1COc2ccccc2N1`, the T/C is 113 % of control (dose: 100.0 mg/kg/injection, schedule: Q01DX001 (ip), vehicle: Klucel (hydroxypropylcellulose) (HPC)) and 100 % of control (dose: 200.0 mg/kg/injection, schedule: Q01DX001 (ip), vehicle: Klucel (hydroxypropylcellulose) (HPC)).
For `CN1CCc2cc3c(cc2/C1=C1\OC(=O)c2c1ccc1c2OCO1)OCO3`, the T/C by setting is: under setting [6], 88 % of control; under setting [7], 93 % of control; under setting [9], 101 % of control.
Take `NC(=O)CC(NC(=O)OCc1ccccc1)C(=O)OCc1ccccc1` (stereo not given): the T/C is, setting by setting: under setting [2], 109 % of control; under setting [5], 100 % of control; under setting [6], 99 % of control; under setting [3], 93 % of control; under setting [7], 102 % of control; under setting [8], 103 % of control. Also, the T/C under setting [9] was 90 % of control.
Take `CC1(c2cccs2)C(=O)N(Cl)C(=O)N1Cl` (stereo not given): the T/C is 100 % of control under setting [10]; 100 % of control under setting [12]; 122 % of control under setting [13]; 118 % of control under setting [14]; 119 % of control under setting [16]; 107 % of control and 109 % of control and 118 % of control under setting [15]. Further, the T/C (dose: 200.0 mg/kg/injection, schedule: Q01DX009 (ip), vehicle: saline) is 120 % of control and the T/C (dose: 200.0 mg/kg/injection, schedule: Q04DX003 (ip), vehicle: saline) was 118 % of control.
As for `CCN1C=C/C(=C\C=C/c2cc[n+](CC)c3ccccc23)c2ccccc21`, the T/C runs as follows: (dose: 0.13 mg/kg/injection, schedule: Q01DX009 (ip), vehicle: saline) 113 % of control; (dose: 0.25 mg/kg/injection, schedule: Q01DX009 (ip), vehicle: saline) 160 % of control; (dose: 0.27 mg/kg/injection, schedule: Q04DX003 (ip), vehicle: saline) 115 % of control; (dose: 0.4 mg/kg/injection, schedule: Q01DX009 (ip), vehicle: Klucel (hydroxypropylcellulose) (HPC)) 150 % of control; (dose: 0.4 mg/kg/injection, schedule: Q04DX003 (ip), vehicle: saline) 100 % of control and 115 % of control; (dose: 0.5 mg/kg/injection, schedule: Q01DX009 (ip), vehicle: saline) 160 % of control. Moreover, the T/C was 154 % of control (dose: 0.62 mg/kg/injection, schedule: Q01DX009 (ip), vehicle: Klucel (hydroxypropylcellulose) (HPC)); 100 % of control and 110 % of control (dose: 0.62 mg/kg/injection, schedule: Q04DX003 (ip), vehicle: saline); 154 % of control (dose: 0.66 mg/kg/injection, schedule: Q04DX003 (ip), vehicle: saline); 155 % of control (dose: 0.82 mg/kg/injection, schedule: Q04DX003 (ip), vehicle: saline); 108 % of control (dose: 44.0 micrograms/kg/injection, schedule: Q01DX009 (ip), vehicle: saline).
With `CC(=O)[C@H]1CC[C@H]2[C@@H]3C[C@H](C)C4=CC(=O)CC[C@]4(C)[C@@]3(F)[C@@H](O)C[C@]12C`, the T/C is, setting by setting: under setting [1], 118 % of control; under setting [2], 109 % of control; under setting [5], 104 % of control and 109 % of control.
`O=C(O)CP(=O)(O)O`: the T/C (dose: 250.0 mg/kg/injection, schedule: Q03HX024 (ip), vehicle: saline) was 120 % of control.
